Experimental data published in patent US6566355B1 (Hoffmann-La Roche Inc., priority 1991, dated 2003).
Where a name gives a salt, the structure may show the parent alone. Read-outs that look alike come from different tables or passages of the source.

Legend:
Citrobacter freundii = assay: MIC in vitro of a 1:4 combination of ceftriaxone with a compound of formula I (test D); type: cell-based; conditions: 1:4 combination of ceftriaxone with the compound
Procedure: D. Determination of the β-lactamase-inhibiting activity by combination of a compound of general formula I with ceftriaxone
The minimum inhibitory concentration in vitro (MIC in μg/ml) of a 1:4 combination of ceftriaxone with a compound of formula I against Citrobacter freundii is measured and compiled in Table 2 hereinafter.

β-lactamase = target: T1, β-lactamase (Citrobacter freundii, UniProt P05193); assay: biochemical
T1 construct: Various β-lactamases can be isolated from penicillin- or cephalosporin-resistant bacterial strains such as; endogenous in cells; host or cells: Citrobacter freundii 1203 (enzyme purified from the crude cell extract, after ampicillin induction when necessary)
T1 sequence (P05193 21-381): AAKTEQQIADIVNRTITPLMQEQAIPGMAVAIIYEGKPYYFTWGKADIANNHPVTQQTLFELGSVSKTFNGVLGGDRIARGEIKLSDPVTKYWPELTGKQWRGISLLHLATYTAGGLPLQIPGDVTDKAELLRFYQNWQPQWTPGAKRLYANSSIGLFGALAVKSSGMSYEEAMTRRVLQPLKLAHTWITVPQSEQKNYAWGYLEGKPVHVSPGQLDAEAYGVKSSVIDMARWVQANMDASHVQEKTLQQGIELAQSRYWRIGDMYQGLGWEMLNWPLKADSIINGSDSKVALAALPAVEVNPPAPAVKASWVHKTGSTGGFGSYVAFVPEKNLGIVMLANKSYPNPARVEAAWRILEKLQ
Outline: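 β-lactamase from C. freundii 1203 crude extract (French press, 20 mM Tris-HCl pH 7.0) assayed with 0.1 mM nitrocefin in 50 mM phosphate pH 7.0 at 37° C, enzyme set to ΔA/min about 0.1, read at 482 nm. IC50 is inhibitor concentration giving 50% inhibition of nitrocefin cleavage, determined graphically.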

[1] = isolated β-lactamase of Citrobacter freundii, substrate nitrocefin 0.1 mM, 15 minutes pre-incubation with inhibitor, 37° C., pH 7.0, read-out: IC 50 nM
[2] = IC 50 nM, isolated β-lactamase of Citrobacter freundii, substrate nitrocefin 0.1 mM, 15 minutes pre-incubation with inhibitor, 37° C., pH 7.0

| Molecule | MIC (Citrobacter freundii) | IC50 (β-lactamase) | IC50 (β-lactamase; [1]) | IC50 (β-lactamase; [2]) |
| --- | --- | --- | --- | --- |
| O=C(/C=C/c1ccco1)N1CC[C@@H]2[C@H]1C(=O)N2S(=O)(=O)O [Example 5(a), (1S,5R)-2-[(E)-3-(2-Furyl)acryloyl-7-oxo-2,6-diazabicyclo[3.20]heptane-6-sulphonic acid sodium salt] | 4 µg/mL | 85 nM | – | – |
| N[C@@H](Cc1ccc(O)cc1)C(=O)N1CC[C@@H]2[C@H]1C(=O)N2S(=O)(=O)O [Example 6(b), (1S,5R)-7-Oxo-2-L-tyrosyl-2,6-diazabicyclo[3.2.0]heptane-6-sulphonic acid] | 4 µg/mL | 310 nM | – | – |
| COC1=C(C(=O)O)N2C(=O)C3C2C(C1)CN3C(=O)OC(C)(C)C [Example 7, (1aS,3aR,6bR)-1,1a,3a,6b-Tetrahydro-5-methoxy-1-oxo-2,6a-diazacyclobuta[cd]indene-2,6(3H,4H)-dicarboxylic acid 2-t-butyl monoester] | 4 µg/mL | – | 505 nM | – |
| CC(=O)Oc1ccc(/C=C/C(=O)N2CC[C@@H]3[C@H]2C(=O)N3S(=O)(=O)[O-])cc1OC(C)=O.[Na+] [Example 13, 4-[(E)-2-[[(1S,5R)-7-Oxo-6-sulpho-2,6-diazabicyclo[3.2.0]heptan-2-yl]carbonyl]vinyl]-o-phenylene diacetate sodium salt] | 4 µg/mL | – | – | 63 nM |
| O=C(NCc1ccco1)N1CC[C@@H]2[C@H]1C(=O)N2S(=O)(=O)O [Example 17(a), (1S,5R)-2-(2-Furan-2-yl-methylcarbamoyl)-7-oxo-2,6-diazabicyclo[3.2.0]heptane-6-sulphonic acid sodium salt] | 2 µg/mL | 156 nM | – | – |
| O=C(CCC(=O)N1CC[C@@H]2[C@H]1C(=O)N2S(=O)(=O)O)NOCc1ccco1 [Example 19, sodium salt] | 2 µg/mL | – | – | 430 nM |
| O=C(CS(=O)(=O)c1ccc(O)c(O)c1)N1CC[C@@H]2[C@H]1C(=O)N2S(=O)(=O)O [Example 20, (1S,5R)-2-[[(3,4-Dihydroxyphenyl)sulphonyl]acetyl]-7-oxo-2,6-diazabicyclo[3.2.0]heptane-6-sulphonic acid sodium salt] | 4 µg/mL | – | – | 165 nM |
| N[C@@H](C(=O)N1CC[C@@H]2[C@H]1C(=O)N2S(=O)(=O)O)c1ccc(O)c(O)c1.[Na] [Example 21, (1S,5R)-2-[(R,S)-Amino-(3,4-dihydroxyphenyl)acetyl]-7-oxo-2,6-diazabicyclo[3.2.0]heptane-6-sulphonic acid sodium salt] | 4 µg/mL | – | 695 nM | – |
| (1S,5R)-2-[(2-Amino-4-thiazolyl)acetyl]-7-oxo-2,6-diazabicyclo[3.2.0]heptane-6-sulphonic acid triethylamine salt [6(o)] | 2 µg/mL | – | 350 nM | – |
| Mixture of (1S,5R)-2-(5-Amino-1H-tetrazol-1-ylacetyl) and (1S,5R)-2-(5-Amino-2H-tetrazol-2-ylacetyl)-7-oxo-2,6-diazabicyclo[3.2.0]heptane-6-sulfonic acid sodium salt (1:2) [23(k)] | 2 µg/mL | – | 273 nM | – |
| Mixture of (1S,5R)-2-[(E)-3-(1-Methyl-3- and -4- or -3- and -5- or -4- and -5-sulfo-pyrrol-2-yl)acryloyl]-7-oxo-2,6-diazabicyclo[3.2.0]heptane-6-sulfonic acid sodium salt (1:2) [23(j)] | 1 µg/mL | – | 38 nM | – |
